In patent US9145399B2, “Substituted bicyclic triazole derivatives as gamma secretase modulators” (Janssen Pharmaceuticals, Inc., priority 2010, dated 2015):

Experiments:
[1] = test system: Aβ42; test: Screening for γ-secretase-modulating activity in SKNBE2 cells carrying APP 695 wild type: Aβ42 in cell supernatant (Alphalisa); type: cell-based; details: overnight incubation
How it was run: (§1)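 SKNBE2 cells expressing wild-type APP695 were incubated overnight at 37° C with test compound at several concentrations. Aβ42 and Aβtotal in supernatant were measured by AlphaLISA sandwich immunoassays. IC50 came from 4-parameter non-linear fits of percent of compound-free control versus log concentration.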

[2] = test system: Aβtotal; test: Screening for γ-secretase-modulating activity in SKNBE2 cells carrying APP 695 wild type: Aβtotal in cell supernatant (Alphalisa); type: cell-based; details: overnight incubation
How it was run: as §1

[3] = test system: Aβ42; test: In vivo efficacy: Aβ42 lowering in brain of non-transgenic mice after single oral dose (ELISA); set-up: species or system mouse; details: dose 30 mg/kg oral dosing, soluble brain fraction, animals sacrificed after 4 h, untreated animals (Ctrl) set at 100; for response vs control in vivo at 30 mg/kg: Mus musculus, read-out: Aβ42 (% vs Ctrl) _Mean
Text: (§2) To determine whether acute administration of an Aβ42 lowering agent would reduce Aβ42 levels in vivo, non-transgenic rodents, e.g. mice or rats were used. Animals treated with the Aβ42 lowering agent were examined and compared to those untreated or treated with vehicle and brain levels of soluble Aβ42 and total Aβ were quantitated by standard techniques, for example, using ELISA. Treatment periods varied from hours (h) to days and were adjusted based on the results of the Aβ42 lowering once a time course of onset of effect could be established.
(§3) A typical protocol for measuring Aβ42 lowering in vivo is shown but it is only one of many variations that could be used to optimize the levels of detectable Aβ. For example, Aβ42 lowering compounds were formulated in 20% of Captisol® (a sulfobutyl ether of β-cyclodextrin) in water or 20% hydroxypropyl β cyclodextrin. The Aβ42 lowering agents were administered as a single oral dose or by any acceptable route of administration to overnight fasted animals. After 4 h, the animals were sacrificed and Aβ42 levels were analysed.
(§4) Blood was collected by decapitation and exsanguinations in EDTA-treated collection tubes. Blood was centrifuged at 1900 g for 10 minutes (min) at 4° C. and the plasma recovered and flash frozen for later analysis. The brain was removed from the cranium and hindbrain. The cerebellum was removed and the left and right hemisphere were separated. The left hemisphere was stored at −18° C. for quantitative analysis of test compound levels. The right hemisphere was rinsed with phosphate-buffered saline (PBS) buffer and immediately frozen on dry ice and stored at −80° C. until homogenization for biochemical assays.
(§5) Mouse brains from non-transgenic animals were resuspended in 8 volumes of 0.4% DEA (diethylamine)/50 mM NaCl containing protease inhibitors (Roche-11873580001 or 04693159001) per gram of tissue, e.g. for 0.158 g brain, add 1.264 ml of 0.4% DEA. All samples were homogenized in the FastPrep-24 system (MP Biomedicals) using lysing matrix D (MPBio #6913-100) at 6 m/s for 20 seconds. Homogenates were centrifuged at 221.300×g for 50 min. The resulting high speed supernatants were then transferred to fresh eppendorf tubes. Nine parts of supernatant were neutralized with 1 part 0.5 M Tris-HCl pH 6.8 and used to quantify Aβtotal and Aβ42.
(§6) To quantify the amount of Aβtotal and Aβ42 in the soluble fraction of the brain homogenates, Enzyme-Linked-Immunosorbent-Assays were used. Briefly, the standards (a dilution of synthetic Aβ1-40 and Aβ1-42, Bachem) were prepared in 1.5 ml Eppendorf tube in Ultraculture, with final concentrations ranging from 10000 to 0.3 pg/ml. The samples and standards were co-incubated with HRPO-labelled N-terminal antibody for Aβ42 detection and with the biotinylated mid-domain antibody 4G8 for Aβtotal detection. 50 μl of conjugate/sample or conjugate/standards mixtures were then added to the antibody-coated plate (the capture antibodies selectively recognize the C-terminal end of Aβ42, antibody JRF/cAβ42/26, for Aβ42 detection and the N-terminus of Aβ, antibody JRF/rAβ/2, for Aβtotal detection). The plate was allowed to incubate overnight at 4° C. in order to allow formation of the antibody-amyloid complex. Following this incubation and subsequent wash steps the ELISA for Aβ42 quantification was finished by addition of Quanta Blu fluorogenic peroxidase substrate according to the manufacturer's instructions (Pierce Corp., Rockford, Il). A reading was performed after 10 to 15 min (excitation 320 nm/emission 420 nm).
In this model at least 20% Aβ42 lowering compared to untreated animals would be advantageous.
The results are shown in Table 4 (dose 30 mg/kg oral dosing) (value for untreated animals as control (Ctrl) was set at 100): […]

[4] = test system: Aβtotal; test: In vivo efficacy: Aβtotal in brain of non-transgenic mice after single oral dose (ELISA); set-up: species or system mouse; details: dose 30 mg/kg oral dosing, soluble brain fraction, animals sacrificed after 4 h, untreated animals (Ctrl) set at 100; for response vs control in vivo at 30 mg/kg: Mus musculus, read-out: Aβtotal (% vs Ctrl)_Mean
Text: as §2, §3, §4, §5, §6
For Aβtotal detection, a Streptavidine-Peroxidase-Conjugate was added, followed 60 min later by an additional wash step and addition of Quanta Blu fluorogenic peroxidase substrate according to the manufacturer's instructions (Pierce Corp., Rockford, Ill). A reading was performed after 10 to 15 min (excitation 320 nm/emission 420 nm). […]

[5] = Homo sapiens, SKNBE2, SKNBE2 cells carrying APP 695 wild type
[6] = SKNBE2 cells carrying APP 695 wild type

Row | SMILES | IC50 [1, 5] | IC50 ([2]; Homo sapiens) | melting point | IC50 [1, 6] | IC50 [2] | response vs control in vivo at 30 mg/kg [3] | response vs control in vivo at 30 mg/kg [4] | Aβ42 (% vs Ctrl) _Mean [3] | Aβtotal (% vs Ctrl)_Mean [4]
1 | COc1cc(Nc2nc3c(-c4ccccc4C(F)(F)F)cccn3n2)ccc1-n1cnc(C)n1 [Compound 3, N-[3-methoxy-4-(3-methyl-1H-1,2,4-triazol-1-yl)phenyl]-8-[2-(trifluoromethyl)phenyl]-[1,2,4]triazolo[1,5-a]pyridin-2-amine] | 19 nM | > 10 µM | 195.5 °C | – | – | 75% | 95% | – | –
2 | COc1cc(Nc2nc3n(n2)CCC[C@H]3c2ccccc2Cl)ccc1-n1cnc(C)c1 [Compound 29, (8S)-8-(2-chlorophenyl)-5,6,7,8-tetrahydro-N-[3-methoxy-4-(4-methyl-1H-imidazol-1-yl)phenyl]-[1,2,4]triazolo[1,5-a]pyridin-2-amine] | 25 nM | > 10 µM | 193.2 °C | – | – | 99% | 98% | – | –
3 | Cc1cc(-c2ccc(Nc3nc4n(n3)CCCC4c3ccccc3Cl)cc2)ccn1 (stereo not shown) [Compound 41, 8-(2-chlorophenyl)-5,6,7,8-tetrahydro-N-[4-(2-methyl-4-pyridinyl)phenyl]-[1,2,4]triazolo[1,5-a]pyridin-2-amine] | 28 nM | > 10 µM | 227.2 °C | – | – | 54% | 102% | – | –
4 | COc1cc(Nc2nc3n(n2)CCCC3c2ccccc2Cl)ccc1-c1ccnc(C)c1 (stereo not shown) [Compound 78] | – | – | 169 °C | 32 nM | > 10 µM | 46% | 103% | – | –
5 | COc1cc(Nc2nc3n(n2)CCOC3c2ccccc2Cl)ccc1-c1ccnc(C)c1 (stereo not shown) [Compound 87, 8-(2-chlorophenyl)-5,6-dihydro-N-[3-methoxy-4-(2-methyl-4-pyridinyl)phenyl]-8H-[1,2,4]triazolo[5,1-c][1,4]oxazin-2-amine] | 35 nM | > 10 µM | 181.3 °C | – | – | 48% | 89% | – | –
6 | COc1ccc(C2CCCn3nc(Nc4ccc(-c5ccnc(C)c5)cc4)nc32)cc1F.Cl.O (stereo not shown) [Compound 105, 8-(3-fluoro-4-methoxyphenyl)-5,6,7,8-tetrahydro-N-[4-(2-methyl-4-pyridinyl)phenyl]-[1,2,4]triazolo[1,5-a]pyridin-2-amine.1.6HCl.2.4H2O] | – | – | – | 56 nM | > 10 µM | – | – | 51 % vs Ctrl | 99 % vs Ctrl

Now from value to molecule, other results behind:

Row | IC50 [1, 5] | IC50 ([2]; Homo sapiens) | melting point | IC50 [1, 6] | IC50 [2] | SMILES | response vs control in vivo at 30 mg/kg [3] | response vs control in vivo at 30 mg/kg [4] | Aβ42 (% vs Ctrl) _Mean [3] | Aβtotal (% vs Ctrl)_Mean [4]
7 | 16 nM | 5.13 µM | 195 °C | – | – | COc1cc(Nc2nc3n(n2)CCC[C@@H]3c2ccccc2Cl)ccc1-n1cnc(C)c1 [Compound 28, (8R)-8-(2-chlorophenyl)-5,6,7,8-tetrahydro-N-[3-methoxy-4-(4-methyl-1H-imidazol-1-yl)phenyl]-[1,2,4]triazolo[1,5-a]pyridin-2-amine] | 81% | 93% | – | –
8 | 13 nM | 5.75 µM | 187.9 °C | – | – | COc1cc(Nc2nc3n(n2)CCCC3c2ccccc2C(F)(F)F)ccc1-n1cnc(C)c1 (stereo not shown) [Compound 31, 5,6,7,8-tetrahydro-N-[3-methoxy-4-(4-methyl-1H-imidazol-1-yl)phenyl]-8-[2-(trifluoromethyl)phenyl]-[1,2,4]triazolo[1,5-a]pyridin-2-amine] | 83% | 96% | – | –
9 | 69 nM | > 10 µM | 193.7 °C | – | – | Cc1cc(-c2ccc(Nc3nc4n(n3)CCCC4c3ccc(F)cc3F)cc2)ccn1 (stereo not shown) [Compound 81, 8-(2,4-difluorophenyl)-5,6,7,8-tetrahydro-N-[4-(2-methyl-4-pyridinyl)phenyl]-[1,2,4]triazolo[1,5-a]pyridin-2-amine] | 41% | 84% | – | –
10 | 39 nM | > 10 µM | 192.7 °C | – | – | COc1cc(Nc2nc3n(n2)CCCC3c2ccc(F)cc2F)ccc1-c1ccnc(C)c1 (stereo not shown) [Compound 82, 8-(2,4-difluorophenyl)-5,6,7,8-tetrahydro-N-[3-methoxy-4-(2-methyl-4-pyridinyl)phenyl]-[1,2,4]triazolo[1,5-a]pyridin-2-amine] | 47% | 89% | – | –
11 | 56 nM | > 10 µM | 153.9 °C | – | – | Cc1cc(-c2ccc(Nc3nc4n(n3)CCCC4c3ccc(F)cc3C)cc2)ccn1 (stereo not shown) [Compound 90, 8-(4-fluoro-2-methylphenyl)-5,6,7,8-tetrahydro-N-[4-(2-methyl-4-pyridinyl)phenyl]-[1,2,4]triazolo[1,5-a]pyridin-2-amine] | 38% | 83% | – | –
12 | 25 nM | 8.51 µM | 161.4 °C | – | – | COc1cc(Nc2nc3n(n2)CCCC3c2ccc(F)cc2C)ccc1-c1ccnc(C)c1 (stereo not shown) [Compound 91, 8-(4-fluoro-2-methylphenyl)-5,6,7,8-tetrahydro-N-[3-methoxy-4-(2-methyl-4-pyridinyl)phenyl]-[1,2,4]triazolo[1,5-a]pyridin-2-amine] | 51% | 92% | – | –
13 | 28 nM | > 10 µM | 175.1 °C | – | – | COc1cc(F)cc(C2CCCn3nc(Nc4ccc(-c5ccnc(C)c5)cc4)nc32)c1 (stereo not shown) [Compound 185, 8-(3-fluoro-5-methoxyphenyl)-5,6,7,8-tetrahydro-N-[4-(2-methyl-4-pyridinyl)phenyl]-[1,2,4]triazolo[1,5-a]pyridin-2-amine] | 52% | 96% | – | –
